Results taken from patent US10106542B2, “Substituted 6,7-dihydropyrazolo[1,5-a]pyrazines as negative allosteric modulators of mGluR2 receptors” (Janssen Pharmaceutica NV, priority 2013, dated 2018).

What was measured:
human mGlu2 receptor = target: T1, human mGlu2 receptor (Homo sapiens, UniProt Q14416); assay: [35S]GTPγS binding assay (mGluR2 negative allosteric modulation); format: biochemical; conditions: for IC50: membranes from CHO cells transfected with human mGlu2 receptor, glutamate 60 μM, pIC50 = −log IC50 (M), read-out: GTPγS - hmGluR2 anGT pIC50 (converted); for Emax: read-out: GTPγS - hmGluR2 anGT Emax
T1 construct: expressed in transfected cells; host or cells: CHO cells (membrane preparation)
T1 sequence (Q14416 19-872): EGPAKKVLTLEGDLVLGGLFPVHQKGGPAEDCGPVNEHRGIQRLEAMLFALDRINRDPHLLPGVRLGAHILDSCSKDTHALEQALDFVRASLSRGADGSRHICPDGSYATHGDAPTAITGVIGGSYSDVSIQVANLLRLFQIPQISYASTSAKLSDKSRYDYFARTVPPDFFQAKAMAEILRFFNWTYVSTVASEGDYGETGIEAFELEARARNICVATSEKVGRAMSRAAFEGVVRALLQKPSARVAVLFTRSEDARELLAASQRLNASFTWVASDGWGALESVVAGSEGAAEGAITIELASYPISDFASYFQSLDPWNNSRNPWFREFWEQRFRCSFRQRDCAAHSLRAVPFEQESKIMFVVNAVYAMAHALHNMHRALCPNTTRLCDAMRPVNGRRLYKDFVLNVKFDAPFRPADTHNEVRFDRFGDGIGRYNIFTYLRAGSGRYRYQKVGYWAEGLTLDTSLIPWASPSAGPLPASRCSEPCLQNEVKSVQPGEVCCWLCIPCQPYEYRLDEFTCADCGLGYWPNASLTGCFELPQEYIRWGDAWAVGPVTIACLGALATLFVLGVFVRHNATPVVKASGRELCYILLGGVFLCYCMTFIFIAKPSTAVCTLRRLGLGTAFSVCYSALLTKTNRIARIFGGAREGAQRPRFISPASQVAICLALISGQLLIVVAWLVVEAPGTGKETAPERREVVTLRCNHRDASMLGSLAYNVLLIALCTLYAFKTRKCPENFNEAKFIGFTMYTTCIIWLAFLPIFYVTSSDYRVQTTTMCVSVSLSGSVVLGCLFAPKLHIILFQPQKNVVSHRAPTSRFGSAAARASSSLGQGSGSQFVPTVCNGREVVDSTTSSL
Procedure, shortened: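 Negative allosteric modulation read as [35S]GTPγS (0.1 nM) incorporation over 30 min at 30 °C, expressed as % of the response to an EC80-equivalent glutamate concentration. Assay used 7 μg human mGlu2 CHO membrane protein in HEPES pH 7.4 buffer with NaCl, MgCl2, GDP and saponin; bound label collected by filtration.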

[1] = relative maximal effect: maximal % inhibition relative to the control glutamate response

IC50 (human mGlu2 receptor) [M]	GTPγS - hmGluR2 anGT Emax (human mGlu2 receptor; [1]) [%]	melting point	Emax (human mGlu2 receptor; [1]) [%]	Structure (SMILES)
5.62e-08	103	86 °C	–	CN(C)c1cc(-c2cnn3c2C(=O)N(c2ccc(Cl)c(Cl)c2)CC3CF)ccn1 (single isomer, unassigned) [compound 91]
3.16e-08	–	163.8 °C	101	C[C@H]1CN(c2ccc(C(F)(F)F)c(F)c2)C(=O)c2c(-c3ccncc3)cnn21 [compound 60]
7.08e-08	–	> 300 °C	100	C[C@H]1CN(c2ccc(Cl)c(C(F)(F)F)c2)C(=O)c2c(-c3ccncc3)cnn21 [compound 68]
1.45e-08	–	162 °C	103	Cc1cc(N2C[C@H](C)n3ncc(-c4ccncc4)c3C2=O)ccc1C(F)(F)F [compound 153]
8.71e-09	–	183.9 °C	103	CCOc1cc(N2C[C@H](C)n3ncc(-c4cc(C)nc(C)c4)c3C2=O)ccc1C(F)(F)F [compound 49]
1.05e-08	–	> 300 °C	107	Cc1cc(-c2cnn3c2C(=O)N(c2ccc(C(F)(F)F)cc2)CC3CF)ccn1 (stereo not drawn) [compound 52, 7-(Fluoromethyl)-3-(2-methyl-4-pyridyl)-5-[4-(trifluoromethyl)phenyl]-6,7-dihydropyrazolo[1,5-a]pyrazin-4-one]
7.08e-09	–	177.6 °C	104	C[C@H]1CN(c2ccc(Cl)c(Cl)c2)C(=O)c2c(-c3ccnc(C(F)F)c3)cnn21 [compound 114]
4.37e-08	–	126.2 °C	102	Cc1cc(-c2cnn3c2C(=O)N(c2ccc(C4(C(F)(F)F)CC4)cc2)C[C@@H]3C)ccn1 [compound 136]
2.95e-07	–	> 300 °C	108	CC(O)c1cc(-c2cnn3c2C(=O)N(c2ccc(Cl)c(Cl)c2)C[C@@H]3C)ccn1 (stereo partly drawn) [compound 111, (7S)-5-(3,4-Dichlorophenyl)-3-[2-(1-hydroxyethyl)-4-pyridyl]-7-methyl-6,7-dihydropyrazolo[1,5-a]pyrazin-4-one]
1.62e-06	–	185.2 °C	100	Cc1cc(-c2cnn3c2C(=O)N(c2ccc(C(F)(F)F)c(F)c2)CC3)ccn1 [compound 39]
8.13e-08	–	101.8 °C	103	C[C@H]1CN(c2ccc(C(F)(F)F)c(C#N)c2)C(=O)c2c(-c3ccncc3)cnn21 [compound 155]
5.75e-09	–	70.5 °C	108	CC(C)c1cc(-c2cnn3c2C(=O)N(c2ccc(C(F)(F)F)cc2)C[C@@H]3C)ccn1 [compound 126, (7S)-3-(2-Isopropyl-4-pyridyl)-7-methyl-5-[4-(trifluoromethyl)phenyl]-6,7-dihydropyrazolo[1,5-a]pyrazin-4-one]
1.29e-07	–	144.3 °C	102	C[C@H]1CN(c2ccc(Cl)cc2)C(=O)c2c(-c3ccncc3)cnn21 [compound 73]
1.7e-05	–	158.8 °C	94	Cc1cc(-c2cnn3c2C(=O)N(c2ccc(C(F)(F)F)cc2)CC3(C)C)ccn1 [compound 171]
2.75e-08	–	124 °C	108	C[C@H]1CN(c2ccc(C(F)(F)F)cc2)C(=O)c2c(-c3ccnc(N4CCCC4)c3)cnn21 [compound 105]
2.82e-08	–	73.3 °C	106	Cc1cc(-c2cnn3c2C(=O)N(c2ccc(C(F)(F)F)c(F)c2)C[C@@H]3C)cc(C)n1 [compound 61]
4.07e-08	–	157.75 °C (dec.)	102	COc1cc(-c2cnn3c2C(=O)N(c2ccc(C(F)(F)F)c(C#N)c2)C[C@@H]3C)ccn1 [compound 88]
2.29e-07	–	140.8 °C	102	Cc1cc(-c2cnn3c2C(=O)N(c2ccc(C(F)(F)F)cc2)C[C@@H]3C)cnc1C [compound 29]
1e-08	–	127.5 °C	105	Cc1cc(-c2cnn3c2C(=O)N(c2ccc(C(F)F)c(Cl)c2)C[C@@H]3C)ccn1 [compound 174]
9.77e-07	–	254 °C	99	C[C@H]1CN(c2ccc(C(F)(F)F)cc2)C(=O)c2c(-c3ccc(N)nc3)cnn21 [compound 37]
1.26e-06	–	93 °C	102	CC(=O)N1CC(c2ccc(-c3cnn4c3C(=O)N(c3ccc(C(F)(F)F)cc3)C[C@@H]4C)cn2)C1 [compound 235]

IC50 (human mGlu2 receptor) [M]	GTPγS - hmGluR2 anGT Emax (human mGlu2 receptor; [1]) [%]	melting point	Emax (human mGlu2 receptor; [1]) [%]	Structure (SMILES)
2.14e-07	–	99.1 °C	100	CCOc1cc(N2CC(CO)n3ncc(-c4ccnc(C)c4)c3C2=O)ccc1C(F)(F)F (stereo not drawn) [compound 74]
4.9e-09	–	292.8 °C	107	Cc1cc(-c2cnn3c2C(=O)N(c2cc(Cl)c(C(F)(F)F)cn2)C[C@@H]3C)ccn1 [compound 204, (7S)-5-[4-Chloro-5-(trifluoromethyl)-2-pyridyl]-7-methyl-3-(2-methyl-4-pyridyl)-6,7-dihydropyrazolo[1,5-a]pyrazin-4-one]
1.1e-08	–	93 °C	104	COc1cc(N2C[C@H](C)n3ncc(-c4cc(C)nc(C)c4)c3C2=O)ccc1C(F)(F)F [compound 51]
6.61e-09	–	189.5 °C	107	CCOc1cc(-c2cnn3c2C(=O)N(c2ccc(C(F)(F)F)cc2)C[C@@H]3C)ccn1 [compound 123]
1.35e-06	–	220.8 °C	102	C[C@H]1CN(c2ccc(C(F)(F)F)cc2)C(=O)c2c(-c3ccnc(N4CCNCC4)c3)cnn21.Cl [compound 175, (7S)-7-Methyl-3-(2-piperazin-1-yl-4-pyridyl)-5-[4-(trifluoromethyl)phenyl]-6,7-dihydropyrazolo[1,5-a]pyrazin-4-one hydrochloride salt]
1.07e-07	–	88 °C	103	Cc1cc(-c2cnn3c2C(=O)N(c2ccc(Cl)cc2)C[C@@H]3C)cc(C)n1 [compound 72]
2.24e-08	–	131.3 °C	107	Cc1cc(N2C[C@H](C)n3ncc(-c4ccnc(NC(C)C)c4)c3C2=O)ccc1C(F)(F)F [compound 267]
1.1e-07	–	139.2 °C	104	Cc1cc(-c2cnn3c2C(=O)N(c2cccc(C(F)(F)F)c2)C[C@@H]3C)ccn1 [compound 23]
6.17e-08	–	219.2 °C	107	Cc1cc(-c2cnn3c2C(=O)N(c2ccc(F)c(C)c2)C[C@@H]3C)ccn1 [compound 21]
1.29e-08	–	153.2 °C	104	C[C@H]1CN(c2ccc(Cl)c(Cl)c2)C(=O)c2c(-c3ccncc3)cnn21 [compound 57]
2.51e-08	–	48.2 °C	106	COCc1cc(N2C[C@H](C)n3ncc(-c4ccnc(C)c4)c3C2=O)ccc1C(F)(F)F [compound 158]
2.45e-08	–	> 300 °C	104	COCC1CN(c2ccc(Cl)c(Cl)c2)C(=O)c2c(-c3ccnc(C)c3)cnn21 (stereo not drawn) [compound 143]
7.59e-09	–	126.7 °C	102	Cc1cc(-c2cnn3c2C(=O)N(c2ccc(Cl)c(C)c2)C[C@@H]3C)ccn1 [compound 7]
1.29e-07	–	185.9 °C	102	Cc1cc(-c2cnn3c2C(=O)N(c2ccc(C(F)F)cc2)C[C@@H]3C)ccn1 [compound 162]
4.07e-08	–	142.4 °C	102	CCOc1nc(N2C[C@H](C)n3ncc(-c4ccnc(C)c4)c3C2=O)ccc1C(F)(F)F [compound 189, (7S)-5-[6-Ethoxy-5-(trifluoromethyl)-2-pyridyl]-7-methyl-3-(2-methyl-4-pyridyl)-6,7-dihydropyrazolo[1,5-a]pyrazin-4-one]
9.77e-08	–	218.9 °C	103	C[C@H]1CN(c2ccc(C(F)(F)F)cc2)C(=O)c2c(-c3ccnc(N)c3)cnn21 [compound 71, (7S)-3-(2-Aminopyridin-4-yl)-7-methyl-5-[4-(trifluoromethyl)phenyl]-6,7-dihydropyrazolo[1,5-a]pyrazin-4(5H)-one]
2.51e-08	–	108.5 °C	106	Cc1cc(-c2cnn3c2C(=O)N(c2ccc(OC(F)F)c(Cl)c2)C[C@@H]3C)ccn1 [compound 168]
2.45e-08	–	134.7 °C	105	C[C@H]1CN(c2ccc(C(F)(F)F)cc2)C(=O)c2c(-c3ccnc(C(F)F)c3)cnn21 [compound 131]
1.07e-07	–	129.5 °C	106	Cc1cc(-c2cnn3c2C(=O)N(c2ccc(OCC(F)(F)F)cc2)C[C@@H]3C)ccn1 [compound 160]
3.89e-07	–	60.8 °C	101	Cc1cc(-c2cnn3c2C(=O)N(c2ccc(OCCF)c(C(F)(F)F)c2)C[C@@H]3C)ccn1 [compound 77, (7S)-5-[4-(2-Fluoroethoxy)-3-(trifluoromethyl)phenyl]-7-methyl-3-(2-methyl-4-pyridyl)-6,7-dihydropyrazolo[1,5-a]pyrazin-4-one]

Structure (SMILES)	IC50 (human mGlu2 receptor) [M]	GTPγS - hmGluR2 anGT Emax (human mGlu2 receptor; [1]) [%]	melting point	Emax (human mGlu2 receptor; [1]) [%]
Cc1cc(-c2cnn3c2C(=O)N(c2ccc(C(F)(F)F)c(C#N)c2)C[C@@H]3C)cc(C)n1 [compound 59]	3.55e-08	–	214.1 °C	98
